Assay results: patent publication US10160785B2, “Antimicrobial peptides and their use for the treatment of topical infections” (priority 2015, dated 2018)
Where a SMILES comes first, the peptide text is derived from it.

Assays:
in vitro = details: human
Procedure: The peptides in the concentrations 2-200 μmol.l^−1 were incubated with the suspension of human red blood cells (5% v/v) for 1 h at 37° C. in a physiological solution at a final volume of 0.2 ml. The samples were then centrifuged for 5 min at 250 g, and the absorbance of the supernatant was determined at 540 nm. Supernatants of red blood cells suspended in physiological solution and in 0.2% (v/v) TRITON X100 in physiological solution served as controls for zero hemolysis (blank) and 100% hemolysis, respectively. Hemolytic activity is expressed as the peptide concentration required for lysis of 50% of human erythrocytes in the assay (LC50).

[1] = system: P. aeruginosa (Liberec) biofilm; assay: Bacterial biofilm, remaining metabolic activity (MTT); format: cell-based, Pseudomonas aeruginosa; details: remaining metabolic activity of biofilm, 20 h
Procedure: (§1) Inoculum of S. aureus (Liberec) or P. aeruginosa (Liberec) cultivated overnight in BHI medium was diluted with fresh BHI medium containing 1% glucose to a final concentration to be ca. 10^8 CFU/ml. Then this was pipetted (100 μl) to 96-multiwell polystyrene plate which was incubated at 37° C. under rotary shaking (300 RPM) for 24 h. Medium without bacteria in the wells was used as a negative control. Supernatant from each well was drained and the biofilm formed on the bottom and on the walls of the wells was cautiously washed three times by sterile physiological solution (300 μl). The peptides tested in the concentrations of 1-128 μmol.l^−1 were prepared by twofold serial dilution of their stock solution (1 mmol.l^−1) in fresh BHI medium and then pipetted (100 μl) to the wells with formed biofilms. The biofilms covered by BHI medium without peptide were used as a positive control. The plates were then incubated for 20 h as described above. After that the liquid was drained out and wells were washed twice with sterile physiological solution.
(§2) The metabolic activity of surviving bacterial cells in the biofilm was determined by staining with MTT (3-(4,5-dimethylthiazol-2-yl)-2,5-diphenyl-2H-tetrazolium bromide) as follows: The mixture of BHI medium (100 μl) and 10 μl of the stock solution of MTT (5 mg/ml in physiological solution) was added to each well and the plate was incubated 40 min at 37° C. The liquid was drained out and the insoluble formazan crystals formed by reduction inside the biofilm were dissolved with dimethyl sulphoxide (100 μl). The intensity of staining in each well was measured as absorbance at 540 nm on a Tecan Infinite M200 Pro reader (Tecan GmbH, Austria). Remaining activity of surviving cells inside the biofilm was expressed for each well in percentage according to the following equation:
(§3) [formula] where A is the absorbance of the tested compound, ABL is the absorbance of the negative control, and AC is the absorbance of control biofilm.

[2] = system: S. aureus (Liberec) biofilm; assay: as above; format: cell-based, Staphylococcus aureus; details: remaining metabolic activity of biofilm, 20 h
Procedure: as §1, §2, §3

[3] = system: Candida albicans (Olomouc) biofilm; assay: C. albicans biofilm, remaining metabolic activity (XTT); format: cell-based
Procedure: Candida albicans (Olomouc) was sub-cultured overnight in YPD medium (10 g yeast extract (DIFCO, USA), 20 g peptone (OXOID), 20 g glucose (Penta) dissolved in 1 L of distilled water) at constant shaking (100 RPM) at 37° C. Next day, the overnight culture was diluted 1:100 into fresh YPD medium and incubated at constant shaking (200 RPM) at 37° C. until the mid-exponential growth phase was reached. Then the cells were harvested and washed twice by centrifugation in physiological solution (5000 RPM; 5 min). Cells were suspended in sterile salt solution and their optical density was determined at 600 nm.
A final yeast suspension was prepared at a cell density of 1×10^6 CFU (corresponding to optical density of 0.17 at 600 nm) in RPMI 1640 medium with L-glutamine (BioSera), NaHCO3 (2 g/l; Penta) and 0.165 mol.l^−1 MOPS (Duchefa)—further as RPMI broth medium 1.
Biofilms were formed on commercially available sterile, polystyrene, flat-bottomed, 96-well microtiter plates (TPP, SW). Cell suspension (100 μl) was pipetted into selected wells of a microtiter plate and incubated without shaking for 2 hours at 37° C. Afterwards, the wells were washed twice with sterile PBS buffer (1.44 g Na2HPO4, 0.24 g KH2PO4, 0.2 g KCl and 8 g NaCl in 1 l distilled water, pH=7; Penta). Fresh RPMI broth medium 1 (100 μl) was added to each well and the plate was sealed with parafilm and incubated without shaking for 48 hours at 37° C.
Planktonic and non-adherent cells were removed by threefold washing of the biofilm with sterile PBS buffer (200 μl). A twofold serial dilution was used to reach required peptide concentration (in RPMI broth medium 1) in each well. Peptide concentrations range was between 0.39-200 μmol.l^−1. Plates were then sealed with parafilm and incubated for 20 hours at 37° C.
The metabolic activity of surviving Candida cells in the treated biofilm was determined by staining with XTT (2,3-Bis(2-methoxy-4-nitro-5-sulphophenyl)-2H-tetrazolium-5-carboxanilide). Stock solution of PMS (phenazine methosulfate; 7.5 g/l; SIGMA, Czech Republic) stored at −20° C. was diluted in PBS buffer 1:100. Diluted PMS was further mixed (2:25) with stock solution of XTT (0.5 g/l; Alchimica, Slovakia) dissolved in PBS/RPMI broth medium (1:1). Mixture (100 μl) of PMS and XTT was added into treated biofilm in the wells and incubated for 90 min at 37° C. Then the intensity of staining in each well was measured as absorbance at 540 nm on a Tecan Infinite M200 Pro reader (Tecan GmbH, Austria). Remaining metabolic activity of the cells in the biofilm was expressed for each well in percentage and calculated as follows:
[formula] where A is the absorbance of tested compound, ABL is the absorbance of negative control and AC is the absorbance of control untreated biofilm. The non-inoculated wells served as negative control. Inoculated wells not treated with compound served as positive control. Amphotericin B was used as control drug to ensure quality of Candida albicans. The values of remaining metabolic activity of treated biofilms are shown at Table 5.

[4] = peptide concentration 8 μmol · l^−1
[5] = peptide concentration 16 μmol · l^−1
[6] = peptide concentration 32 μmol · l^−1
[7] = peptide concentration 64 μmol · l^−1
[8] = peptide concentration 128 μmol · l^−1
[9] = peptide concentration 6.25 μmol · l^−1, 20 hours
[10] = peptide concentration 12.5 μmol · l^−1, 20 hours
[11] = peptide concentration 25 μmol · l^−1, 20 hours
[12] = peptide concentration 50 μmol · l^−1, 20 hours
[13] = peptide concentration 100 μmol · l^−1, 20 hours
[14] = peptide concentration 200 μmol · l^−1, 20 hours

Row | Molecule | CC50 at 1 h (in vitro) [µM] | Metabolic activity (%) P. aeruginosa (Liberec) [1, 4] [%] | Metabolic activity (%) P. aeruginosa (Liberec) [1, 5] [%] | Metabolic activity (%) P. aeruginosa (Liberec) [1, 6] [%] | Metabolic activity (%) P. aeruginosa (Liberec) [1, 7] [%] | Metabolic activity (%) P. aeruginosa (Liberec) [1, 8] [%] | Metabolic activity (%) S. aureus (Liberec) [2, 4] [%] | Metabolic activity (%) S. aureus (Liberec) [2, 5] [%] | Metabolic activity (%) S. aureus (Liberec) [2, 6] [%] | Metabolic activity (%) S. aureus (Liberec) [2, 7] [%] | Metabolic activity (%) S. aureus (Liberec) [2, 8] [%] | Metabolic activity of C. albicans (%) [3, 9] [%] | Metabolic activity of C. albicans (%) [3, 10] [%] | Metabolic activity of C. albicans (%) [3, 11] [%] | Metabolic activity of C. albicans (%) [3, 12] [%] | Metabolic activity of C. albicans (%) [3, 13] [%] | Metabolic activity of C. albicans (%) [3, 14] [%] | HC50 at 1 h (in vitro) [µM]
1 | H-GIMSSLMKKLKKIIAK-NH2 [I] | > 400 | 86.4 | 87.7 | 89.6 | 62.9 | 43.4 | 111.6 | 103.3 | 111.2 | 101.9 | 11.4 | 100.4 | 108.0 | 130.7 | 57.5 | 28.2 | 8.1 | –
2 | CC[C@@H](C)[C@@H](NC(=O)CN)C(=O)N[C@H](CC(C)C)C(=O)N[C@H](CO)C(=O)N[C@H](CO)C(=O)N[C@H](CC(C)C)C(=O)N[C@H](Cc1c[nH]c2ccccc12)C(=O)N[C@H](CCCCN)C(=O)N[C@H](CCCCN)C(=O)N[C@H](CC(C)C)C(=O)N[C@H](CCCCN)C(=O)N[C@H](CCCCN)C(=O)N[C@@H](C(=O)N[C@@H](C(=O)N[C@H](C)C(=O)N[C@H](CCCCN)C(N)=O)[C@H](C)CC)[C@H](C)CC [XIII] (HELM PEPTIDE1{G.[dI].[dL].[dS].[dS].[dL].[dW].[dK].[dK].[dL].[dK].[dK].[dI].[dI].[dA].[dK].[am]}$$$$V2.0) | 191 | 71.2 | 65.8 | 61.2 | 73.6 | 23.0 | 71.6 | 33.8 | 21.5 | 20.4 | 5.3 | 78.3 | 56.9 | 37.2 | 10.9 | 5.8 | 4.9 | –
3 | H-GILSSLLKKLKKIIAK-NH2 [III] | 284 | – | – | – | – | – | 87.8 | 89.6 | 78.4 | 15.9 | 2.4 | 104.7 | 113.6 | 87.2 | 31.1 | 28.4 | 0.0 | –
4 | H-GIMSSLMKKLAAIIKK-NH2 [IX] | > 400 | 73.6 | 76.8 | 85.3 | 83.8 | 34.2 | 79.1 | 53.6 | 54.0 | 30.5 | 23.6 | 93.2 | 54.3 | 2.3 | 1.5 | 1.3 | 0.8 | –
5 | H-GIMSSLMKKLAAHIKK-NH2 [VIII] | – | – | – | – | – | – | – | – | – | – | – | – | – | – | – | – | – | > 400
6 | NCC[C@H](O)C(=O)N[C@@H]1C[C@H](N)[C@@H](O[C@H]2O[C@H](CN)[C@@H](O)[C@H](O)[C@H]2O)[C@H](O)[C@H]1O[C@H]1O[C@H](CO)[C@@H](O)[C@H](N)[C@H]1O [Amikacin, reference compound] | – | 80.0 | 62.9 | 40.4 | 20.3 | 11.8 | 95.4 | 102.4 | 108.7 | 82.4 | 104.0 | – | – | – | – | – | – | –
7 | CN[C@H](CC(C)C)C(=O)N[C@H]1C(=O)N[C@@H](CC(N)=O)C(=O)N[C@H]2C(=O)N[C@H]3C(=O)N[C@H](C(=O)N[C@H](C(=O)O)c4cc(O)cc(O)c4-c4cc3ccc4O)[C@H](O)c3ccc(c(Cl)c3)Oc3cc2cc(c3O[C@@H]2O[C@H](CO)[C@@H](O)[C@H](O)[C@H]2O[C@H]2C[C@](C)(N)[C@H](O)[C@H](C)O2)Oc2ccc(cc2Cl)[C@H]1O [Vancomycin, reference compound] | – | – | – | – | – | – | 52.8 | 15.9 | 9.7 | 8.5 | 6.3 | – | – | – | – | – | – | –
